Experimental data taken from ChEMBL document CHEMBL1201862, “PubChem BioAssay data set” (2004).
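Five concentrations, 48 hours, 96-well plates. GI50 is the concentration that inhibits growth by half.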 Activity calls are given as the source filed them. Cut-off read from the data, not from the text of the source: active = GI50 up to about 1.1 µM and inactive = higher.

How the values were obtained:
Assay in all cases: NCI anticancer screen, dose series, 48 h
[1] = test system: 786-0
[2] = test system: A498
[3] = test system: A549
[4] = test system: ACHN
[5] = test system: CAKI-1
[6] = test system: COLO 205
[7] = test system: DLD-1
[8] = test system: DMS-114
[9] = test system: DMS-273
[10] = test system: EKVX
[11] = test system: HCC 2998
[12] = test system: HCT-116
[13] = test system: HCT-15
[14] = test system: HL-60
[15] = test system: HOP-18
[16] = test system: HOP-62
[17] = test system: HOP-92
[18] = test system: HT-29
[19] = test system: IGROV-1
[20] = test system: K562
[21] = test system: KM-20L2
[22] = test system: KM12
[23] = test system: LOX IMVI
[24] = test system: LXFL 529
[25] = test system: M14
[26] = test system: M19-MEL
[27] = test system: MOLT-4
[28] = test system: Malme-3M
[29] = test system: NCI-H226
[30] = test system: NCI-H23
[31] = test system: NCI-H460
[32] = test system: NCI-H522
[33] = test system: OVCAR-3
[34] = test system: OVCAR-4
[35] = test system: OVCAR-5
[36] = test system: OVCAR-8
[37] = test system: RPMI-8226
[38] = test system: RXF 393
[39] = test system: RXF 631
[40] = test system: SF-268
[41] = test system: SF-295
[42] = test system: SF-539
[43] = test system: SK-MEL-28
[44] = test system: SK-MEL-5
[45] = test system: SK-OV-3
[46] = test system: SN12C
[47] = test system: SNB-19
[48] = test system: SNB-75
[49] = test system: SNB-78
[50] = test system: SW-620
[51] = test system: TK-10
[52] = test system: U-251
[53] = test system: UACC-257
[54] = test system: UACC-62
[55] = test system: UO-31
[56] = test system: XF498
[57] = test system: CCRF-CEM
[58] = test system: SK-MEL-2
[59] = test system: SR

Measured: GI50

O=C(Nc1ccccc1[N+](=O)[O-])c1ccccc1
> 100 µM: [13]
inactive: [1] > 100 µM | [2] > 100 µM | [3] > 100 µM | [4] > 100 µM | [5] > 100 µM | [6] > 100 µM | [7] 72.3 µM | [8] 70.1 µM | [9] > 100 µM | [10] 97.7 µM | [11] > 100 µM | [12] > 100 µM | [14] > 100 µM | [15] > 100 µM | [16] 67.5 µM | [17] 65.9 µM | [18] > 100 µM | [19] > 100 µM | [20] > 100 µM | [21] > 100 µM | [22] 55.5 µM | [23] 95.9 µM | [24] > 100 µM | [25] > 100 µM | [26] > 100 µM | [27] 53 µM | [28] > 100 µM | [29] 83.8 µM | [30] > 100 µM | [31] > 100 µM | [32] 56.9 µM | [33] > 100 µM | [34] 82.6 µM | [35] > 100 µM | [36] > 100 µM | [37] 80.9 µM | [38] 37.3 µM | [39] 64.1 µM | [40] > 100 µM | [41] > 100 µM | [42] > 100 µM | [43] > 100 µM | [44] > 100 µM | [45] > 100 µM | [46] > 100 µM | [47] > 100 µM | [48] 65.3 µM | [49] > 100 µM | [50] > 100 µM | [51] > 100 µM | [52] > 100 µM | [53] > 100 µM | [54] > 100 µM | [55] 61.7 µM | [56] > 100 µM

FC(F)(F)c1nc(-c2ccccc2)oc1Sc1nnc(Sc2oc(-c3ccccc3)nc2C(F)(F)F)s1
inactive: [1] 28.4 µM | [2] 98.6 µM | [3] > 100 µM | [4] > 82.2 µM | [5] 30.1 µM | [57] 8.97 µM | [6] 41.1 µM | [7] 36.4 µM | [8] 6.15 µM | [9] 46.8 µM | [10] > 47.2 µM | [11] > 78.2 µM | [12] > 65.3 µM | [14] 14.2 µM | [15] > 100 µM | [16] > 100 µM | [17] 29.4 µM | [18] > 100 µM | [19] 24.2 µM | [20] 24 µM | [21] > 100 µM | [22] > 100 µM | [23] 10.4 µM | [24] 27.8 µM | [25] 14.2 µM | [26] 23.2 µM | [27] 6.84 µM | [28] 18.1 µM | [30] 24.2 µM | [31] > 100 µM | [32] 18.5 µM | [33] > 43.4 µM | [34] 14.7 µM | [35] > 100 µM | [36] 22.7 µM | [37] 30.5 µM | [38] 21.1 µM | [39] 36.9 µM | [40] 58.9 µM | [41] > 67.1 µM | [42] > 69.8 µM | [43] > 55.3 µM | [58] 86.7 µM | [44] 14.4 µM | [45] > 100 µM | [46] 39.4 µM | [47] > 63.5 µM | [48] 37.8 µM | [49] 34.1 µM | [59] 18.5 µM | [50] > 60.3 µM | [51] > 55.8 µM | [52] > 42.5 µM | [53] > 69.7 µM | [54] 35.2 µM | [55] > 100 µM | [56] 9.06 µM
25.3 µM: [13]

CC(C)C(/N=C1\CC2CCC1(C(=O)Nc1ccccc1O)C2(C)C)c1ccccc1 (configuration not stated)
> 10 µM: [13]
inactive: [1] > 10 µM | [2] > 10 µM | [3] > 10 µM | [4] > 10 µM | [5] > 10 µM | [57] > 10 µM | [6] > 10 µM | [7] > 10 µM | [8] > 10 µM | [9] > 10 µM | [10] 7.43 µM | [11] > 10 µM | [12] 6.61 µM | [14] 2.4 µM | [15] > 10 µM | [16] > 10 µM | [17] 2.23 µM | [18] 9.75 µM | [19] > 10 µM | [20] > 10 µM | [21] > 10 µM | [22] > 10 µM | [23] > 10 µM | [24] > 10 µM | [25] > 10 µM | [26] > 10 µM | [27] 3.18 µM | [28] > 10 µM | [29] > 10 µM | [30] 7.67 µM | [31] 7.67 µM | [32] 6.58 µM | [33] > 10 µM | [34] > 10 µM | [35] > 10 µM | [36] > 10 µM | [37] 5.11 µM | [39] > 10 µM | [40] > 10 µM | [41] > 10 µM | [42] > 10 µM | [43] > 10 µM | [58] > 10 µM | [44] 6.44 µM | [45] > 10 µM | [46] > 10 µM | [47] > 10 µM | [48] > 10 µM | [49] > 10 µM | [59] > 10 µM | [50] 4.8 µM | [51] > 10 µM | [52] > 10 µM | [53] 5.89 µM | [54] > 10 µM | [55] > 10 µM | [56] 7.29 µM
